Each structure is given as a SMILES string.

The target in data set [1] is T1, CYP1A2 (Homo sapiens, UniProt P05177).
T1 sequence (P05177 1-516): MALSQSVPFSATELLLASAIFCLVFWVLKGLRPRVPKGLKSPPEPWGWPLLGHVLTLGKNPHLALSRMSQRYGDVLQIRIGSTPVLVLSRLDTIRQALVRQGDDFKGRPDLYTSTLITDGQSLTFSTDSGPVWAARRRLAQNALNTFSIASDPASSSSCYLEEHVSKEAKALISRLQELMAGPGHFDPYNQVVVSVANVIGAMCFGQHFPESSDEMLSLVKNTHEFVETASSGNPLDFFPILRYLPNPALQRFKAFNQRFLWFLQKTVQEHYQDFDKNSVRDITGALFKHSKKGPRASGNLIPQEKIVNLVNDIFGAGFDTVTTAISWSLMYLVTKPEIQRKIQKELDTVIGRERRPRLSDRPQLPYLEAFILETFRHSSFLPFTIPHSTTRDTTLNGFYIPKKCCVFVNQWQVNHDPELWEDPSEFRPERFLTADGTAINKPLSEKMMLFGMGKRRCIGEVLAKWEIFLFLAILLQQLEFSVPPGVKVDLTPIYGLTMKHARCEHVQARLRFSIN
Nature of the data set: CYP1A2-mediated phenacetin O-deethylase (POD) activity in pooled human liver microsomes. The protocol:
(§1) The inhibitory potential of five major bioactive compounds from Cassiae semen against CYP1A2-mediated phenacetin O-deethylase (POD) activity was evaluated using previously developed methods with minor modifications. Briefly, the compounds were dissolved in methanol. The incubation mixtures containing pHLMs (0.25 mg/mL), phenacetin (100 µM), and inhibitor (0, 0.5, 2, 5, 20, or 50 µM) were pre-incubated at 37 °C for 5 min. An NADPH-generating system (NGS, 1.3 mM β-NADP^+, 3.3 mM G6P, 1.0 U/mL G6PDH, and 3.3 mM magnesium chloride) was introduced after pre-incubation to initiate the reaction, and further incubated for 15 min. The reaction was quenched by the addition of 50 µL ice-cold acetonitrile containing internal standard (IS; 7nM trimipramine). Aliquots of supernatants were analyzed by liquid chromatography–tandem mass spectrometry (LC-MS/MS, LCMS 8060 system, Shimadzu, Kyoto, Japan). All microsomal incubations were repeated three times.
(§2) The inhibitory potential of obtusifolin against the biotransformation of eight P450 probe substrates was examined using previously reported methods with slight changes. The following P450 isoform-specific substrates were used: coumarin (CYP2A6); bupropion (CYP2B6); amodiaquine (CYP2C8); tolbutamide (CYP2C9); omeprazole (CYP2C19); dextromethorphan (CYP2D6); chlorzoxazone (CYP2E1); and midazolam (CYP3A). Mixtures of pooled HLM, P450 substrates, and obtusifolin (0, 0.05, 0.2, 0.5, 2, 5, or 10 µM for CYP1A2; and 0, 0.5, 2, 5, 20, or 50 µM for the other P450 isoforms) were pre-incubated (5 min, 37 °C). NGS was introduced to start the reaction, which was followed by an additional incubation (15 min). Following reaction termination, aliquots of the supernatants were analyzed with LC-MS/MS.
(§3) Reverse phase column (Kinetex XB-C18, 100 × 2.10 mm; Phenomenex, Torrance, CA, USA) and triple-quadrupole mass spectrometer (LCMS 8060, Shimadzu, Kyoto, Japan) with an ultra high-performance LC system (Nexera X2, Shimadzu) analyze all the metabolites. Mobile phases were 0.1% formic acid in water (A) and 0.1% formic acid in acetonitrile (B). The elution condition was as follows: 0–0.5 min (B: 8%), 0.5–5 min (B: 8%→60%), 5–6 min (B: 60%), 6–6.1 min (B: 60%→8%), and 6.1–10 min (B: 8%) for the analysis of metabolites of the nine P450 substrates; and 0–1 min (B: 5%), 1–5 min (B: 5%→90%), and 5.1–7 min (B: 90%→5%) for the analysis of resorufin. Electrospray ionization was performed in the positive- and negative-ion modes at 4.0 and −3.5 kV, respectively. For each metabolite, quantitation was carried out in selected reaction monitoring (SRM) mode using the following precursor-to-product ion transition: m/z 152 > 110 for acetaminophen (CYP1A2), m/z 214 > 186 for resorufin (CYP1A1 and CYP1A2), m/z 163 > 107 for 7-hydroxycoumarin (CYP2A6), m/z 256 > 238 for 6-hydroxybupropion (CYP2B6), m/z 328 > 283 for N-desethylamodiaquine (CYP2C8), m/z 287 > 89 for 5-hydroxytolbutamide (CYP2C9), m/z 362 > 214 for 4-hydroxyomeprazole ([…]), m/z 258 > 157 for dextrorphan (CYP2D6), m/z 184 > 120 for 6-hydroxychlorzoxazone (CYP2E1), m/z 342 > 203 for 1′-hydroxymidazolam (CYP3A), and m/z 295 > 100 for trimipramine (IS).
(§4) WinNonlin software (Pharsight, Mountain View, CA, USA) was used to calculate IC50 values. Based on Lineweaver–Burk double reciprocal plots, secondary plots of Lineweaver–Burk plots versus obtusifolin concentrations, and visual inspection of Dixon plots, the type of inhibition and apparent kinetic parameters for inhibitory activity (Ki) were estimated.
For orientation: Microsomes from liver hold many membrane-bound enzymes, among them those of drug oxidation.

Data set [2] has as its target T2, CYP1A2 versus CYP2A6, CYP2B6, CYP2C8, CYP2C9, CYP2C19, CYP2D6, CYP2E1, CYP3A (Homo sapiens, UniProt P05177).
T2 sequence (P05177 1-516): T1 sequence (P05177 1-516)
Described as above. Conditions: human, pooled human liver microsomes. The method, then:
as §1, §2, §3, §4

Data set [3] deals with T3, recombinant CYP1A2 (rCYP1A2) (Homo sapiens, UniProt P05177).
T3 construct: purchased SPMED (Busan, Republic of Korea)
T3 sequence (P05177 1-516): T1 sequence (P05177 1-516)
Put plainly: Inhibition of CYP1A2-mediated POD in recombinant CYP1A2. The format is biochemical. Conditions: rCYP1A2 10 pmol/mL.
Text: (§5) The other conditions were similar to those used in the P450 inhibition study, as described earlier.
as §4

In data set [4] the target is T4, CYP2C19 (Homo sapiens, UniProt P33261).
T4 construct: Mixtures of pooled HLM, P450 substrates, and obtusifolin; tissue XenoTech XTreme 200; host or cells: pooled human liver microsomes
Nature of the data set: Omeprazole 4-hydroxylation in human liver microsomes. The format is biochemical. The note with it: HLMs.
Experimental: The following P450 isoform-specific substrates were used: coumarin (CYP2A6); bupropion (CYP2B6); amodiaquine (CYP2C8); tolbutamide (CYP2C9); omeprazole (CYP2C19); dextromethorphan (CYP2D6); chlorzoxazone (CYP2E1); and midazolam (CYP3A). […] NGS was introduced to start the reaction, which was followed by an additional incubation (15 min). Following reaction termination, aliquots of the supernatants were analyzed with LC-MS/MS.
Reverse phase column (Kinetex XB-C18, 100 × 2.10 mm; Phenomenex, Torrance, CA, USA) and triple-quadrupole mass spectrometer (LCMS 8060, Shimadzu, Kyoto, Japan) with an ultra high-performance LC system (Nexera X2, Shimadzu) analyze all the metabolites. […] For each metabolite, quantitation was carried out in selected reaction monitoring (SRM) mode using the following precursor-to-product ion transition: m/z 152 > 110 for acetaminophen (CYP1A2), m/z 214 > 186 for resorufin (CYP1A1 and CYP1A2), m/z 163 > 107 for 7-hydroxycoumarin (CYP2A6), m/z 256 > 238 for 6-hydroxybupropion (CYP2B6), m/z 328 > 283 for N-desethylamodiaquine (CYP2C8), m/z 287 > 89 for 5-hydroxytolbutamide (CYP2C9), m/z 362 > 214 for 4-hydroxyomeprazole (CYP2C9), m/z 258 > 157 for dextrorphan (CYP2D6), m/z 184 > 120 for 6-hydroxychlorzoxazone (CYP2E1), m/z 342 > 203 for 1′-hydroxymidazolam (CYP3A), and m/z 295 > 100 for trimipramine (IS) [23, 24].

Data set [5] relates to CYP1A1 and CYP1A2. Nature of the data set: CYP1A1- and CYP1A2-mediated POD and EROD with recombinant enzymes (summary). Format: biochemical. Conditions: human, summary bound. The method, then: as §5
The inhibitory effects of obtusifolin on the CYP1A-mediated ethoxyresorufin O-deethylation (EROD) activity of rCYP1A1 and rCYP1A2 enzymes (10 pmol/mL) were investigated. […] The other conditions, except for the incubation time (20 min), were similar to those used in the P450 inhibition study, as described earlier.

T4 sequence (P33261 whole entry): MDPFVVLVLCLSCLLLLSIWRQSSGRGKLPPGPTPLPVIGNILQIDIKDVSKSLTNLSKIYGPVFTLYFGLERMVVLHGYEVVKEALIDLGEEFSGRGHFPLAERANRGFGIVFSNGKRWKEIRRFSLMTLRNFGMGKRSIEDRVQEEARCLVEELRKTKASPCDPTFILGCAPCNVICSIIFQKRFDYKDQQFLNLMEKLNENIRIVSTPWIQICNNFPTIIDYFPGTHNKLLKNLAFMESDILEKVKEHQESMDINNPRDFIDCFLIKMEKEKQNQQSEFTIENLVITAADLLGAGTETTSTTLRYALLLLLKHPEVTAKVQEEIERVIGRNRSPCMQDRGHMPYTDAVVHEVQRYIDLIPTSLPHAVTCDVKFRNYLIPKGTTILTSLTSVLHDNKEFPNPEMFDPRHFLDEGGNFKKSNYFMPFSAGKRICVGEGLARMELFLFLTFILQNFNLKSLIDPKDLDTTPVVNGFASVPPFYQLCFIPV

As a reminder, the IC50 is the concentration that gives 50% inhibition. A word on the inhibition: it is the drop in the measured response relative to a control, in per cent. A high value points to strong suppression. For orientation: Ki means a dissociation constant, usually derived from enzyme kinetics or from competition with a known ligand. For the compound `COc1c(O)c(C)cc2c1C(=O)c1c(O)cccc1C2=O` [Obtusifolin, obtusifolin], the IC50 was 190 ± 10 nM in data set [1]; 370 ± 110 nM in data set [3] (phenacetin, read-out: IC50, CYP1A2-mediated phenacetin O-deethylation); more than 50000 nM in data set [4]; less than 570 nM in data set [5]. Moreover, the inhibition at 15 min, 0.5 µM in data set [1] (human, pooled human liver microsomes, probe phenacetin (100 µM)) is 73.3%. Moreover, the selectivity ratio at 15 min in data set [2] was more than 150. Also, in data set [3] (read-out: Ki, CYP1A2-mediated phenacetin O-deethylation), the Ki came out at 210 ± 53 nM.

The record behind these values is paper PMC9786103, “Potent and Selective Inhibition of CYP1A2 Enzyme by Obtusifolin and Its Chemopreventive Effects” (Pharmaceutics, 2022).
